# Source: US8338465B2, “Cyclic carboxylic acid rhodanine derivatives for the treatment and prevention of tuberculosis” (priority 2006, dated 2012)
# Molecular target: T1, dihydrolipoamide acyltransferase (DlaT) (Mycobacterium tuberculosis, UniProt P9WIS7)
# T1 sequence (P9WIS7 1-553): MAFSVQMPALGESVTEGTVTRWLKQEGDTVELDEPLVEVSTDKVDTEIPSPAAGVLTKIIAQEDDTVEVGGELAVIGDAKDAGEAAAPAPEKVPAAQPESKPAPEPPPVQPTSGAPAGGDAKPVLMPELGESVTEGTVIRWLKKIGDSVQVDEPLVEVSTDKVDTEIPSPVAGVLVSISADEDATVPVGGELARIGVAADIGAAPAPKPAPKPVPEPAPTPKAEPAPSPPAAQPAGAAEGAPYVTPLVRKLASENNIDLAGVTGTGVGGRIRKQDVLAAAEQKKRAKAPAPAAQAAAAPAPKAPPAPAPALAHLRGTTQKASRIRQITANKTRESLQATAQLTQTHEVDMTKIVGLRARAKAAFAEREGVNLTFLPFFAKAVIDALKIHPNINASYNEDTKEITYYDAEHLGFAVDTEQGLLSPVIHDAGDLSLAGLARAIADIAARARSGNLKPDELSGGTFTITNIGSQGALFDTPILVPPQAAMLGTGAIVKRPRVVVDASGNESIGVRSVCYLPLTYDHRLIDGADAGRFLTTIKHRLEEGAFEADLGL
# Assay: DlaT inhibition (Dlat IC50); DTNB peroxidase assay with Lpd, DlaT and AhpD
# Format: biochemical
# Conditions: Table 1, Compounds A1 to A294; read-out: Dlat IC50 category
row,Compound,IC50
1,CC(C)Cc1ccc(-c2ccc(C=C3SC(=S)N(c4ccc(O)c(C(=O)O)c4)C3=O)o2)cc1 [Compound A65],< 10 µM
2,O=C(O)c1cc(N2C(=O)C(=Cc3ccc(-c4ccccc4Cl)o3)SC2=S)ccc1Cl [Compound A66],< 10 µM
3,O=C(O)c1cc(N2C(=O)C(=Cc3ccc(-c4cccc(C(F)(F)F)c4)o3)SC2=S)ccc1Cl [Compound A67],< 10 µM
4,O=C(O)c1cc(N2C(=O)C(=Cc3ccc(-c4ccc(Cl)cc4)o3)SC2=S)ccc1Cl [Compound A68],< 10 µM
5,O=C(O)c1cc(N2C(=O)C(=Cc3ccc(-c4ccccc4OC(F)(F)F)o3)SC2=S)ccc1Cl [Compound A69],< 10 µM
6,O=C(O)c1cccc(N2C(=O)C(=Cc3ccc(-c4ccccc4OC(F)(F)F)o3)SC2=S)c1 [Compound A70],< 10 µM
7,O=C(O)c1ccc(Cl)c(N2C(=O)C(=Cc3ccc(-c4ccccc4Cl)o3)SC2=S)c1 [Compound A71],< 10 µM
8,O=C(O)c1ccc(Cl)c(N2C(=O)C(=Cc3ccc(-c4ccc(Cl)cc4)o3)SC2=S)c1 [Compound A72],< 10 µM
9,O=C(O)c1ccc(Cl)c(N2C(=O)C(=Cc3ccc(-c4cccc(C(F)(F)F)c4)o3)SC2=S)c1 [Compound A73],< 10 µM
10,COc1ccc(C(=O)O)cc1N1C(=O)C(=Cc2ccc(-c3ccccc3Cl)o2)SC1=S [Compound A74],< 10 µM
11,NC(=O)c1cccc(N2C(=O)C(=Cc3ccc(-c4ccccc4Cl)o3)SC2=S)c1 [Compound A75],11 to 40 µM
12,NC(=O)c1cccc(N2C(=O)C(=Cc3ccc(-c4cccc(C(F)(F)F)c4)o3)SC2=S)c1 [Compound A76],11 to 40 µM
13,NC(=O)c1cccc(N2C(=O)C(=Cc3ccc(-c4ccc(Cl)cc4)o3)SC2=S)c1 [Compound A77],11 to 40 µM
14,Cc1ccc(C(=O)O)cc1N1C(=O)C(=Cc2ccc(-c3ccccc3Cl)o2)SC1=S [Compound A78],< 10 µM
15,Cc1c(C(=O)O)cccc1N1C(=O)C(=Cc2ccc(-c3ccccc3Cl)o2)SC1=S [Compound A79],< 10 µM
16,Cc1ccc(C(=O)O)cc1N1C(=O)C(=Cc2ccc(-c3ccc(C(C)(C)C)cc3)o2)SC1=S [Compound A80],< 10 µM
17,Cc1c(C(=O)O)cccc1N1C(=O)C(=Cc2ccc(-c3ccc(C(C)(C)C)cc3)o2)SC1=S [Compound A81],< 10 µM
18,Cc1ccc(C(=O)O)cc1N1C(=O)C(=Cc2ccc(-c3ccc(C4CCCCC4)cc3)o2)SC1=S [Compound A82],< 10 µM
19,Cc1c(C(=O)O)cccc1N1C(=O)C(=Cc2ccc(-c3ccc(C4CCCCC4)cc3)o2)SC1=S [Compound A83],< 10 µM
20,O=C(O)c1cccc(N2C(=O)C(=Cc3ccc(-c4ccc(Cc5ccc(Cl)cc5)cc4)o3)SC2=S)c1 [Compound A84],< 10 µM
21,COc1ccc(C(=O)O)cc1N1C(=O)C(=Cc2ccc(-c3cccc(C(F)(F)F)c3)o2)SC1=S [Compound A86],< 10 µM
22,COc1ccc(C(=O)O)cc1N1C(=O)C(=Cc2ccc(-c3ccc(Cl)cc3)o2)SC1=S [Compound A87],< 10 µM
23,O=C(O)c1cc(N2C(=O)C(=Cc3ccc(-c4ccccc4Cl)o3)SC2=S)cc([N+](=O)[O-])c1 [Compound A88],< 10 µM
24,O=C(O)c1cc(N2C(=O)C(=Cc3ccc(-c4cccc(C(F)(F)F)c4)o3)SC2=S)cc([N+](=O)[O-])c1 [Compound A89],11 to 40 µM
25,O=C(O)c1cc(N2C(=O)C(=Cc3ccc(-c4ccc(Cl)cc4)o3)SC2=S)cc([N+](=O)[O-])c1 [Compound A90],< 10 µM
26,COc1ccc(C(=O)O)cc1N1C(=O)C(=Cc2ccc(-c3ccc(CC(C)C)cc3)o2)SC1=S [Compound A91],< 10 µM
27,CC(C)Cc1ccc(-c2ccc(C=C3SC(=S)N(c4cc(C(=O)O)ccc4Cl)C3=O)o2)cc1 [Compound A92],< 10 µM
28,COc1ccc(C(=O)O)cc1N1C(=O)C(=Cc2ccc(-c3cccc(C(C)C)c3)o2)SC1=S [Compound A93],< 10 µM
29,O=C(O)c1cccc(N2C(=O)C(=Cc3ccc(-c4ccc(C5CCCC5)cc4)o3)SC2=S)c1 [Compound A94],< 10 µM
